Tested on: caspase 3/7 in 22Rv1 cells
Assay: Caspase-Glo 3/7 assay 22Rv1
Format: cell-based
Conditions: read-out: EC50 Caspase-Glo 3/7, 24h

EC50: 90 nM
SMILES: Cc1ncsc1-c1ccc([C@H](C)NC(=O)[C@@H]2C[C@@H](O)CN2C(=O)[C@@H](NC(=O)COCCCOCCNC(=O)C[C@@H]2N=C(c3ccc(Cl)cc3)c3c(sc(C)c3C)-n3c(C)nnc32)C(C)(C)C)cc1 [ARV-771]

From paper PMC7611906 (Nature chemical biology, 2021)
